Reference: patent US20180312493A1, “Antibiotic Compounds, Pharmaceutical Formulations Thereof And Methods And Uses Therefor” (Simon Fraser University, priority 2015, published 2018)
≈ marks a conversion by molar mass, not a printed value.

Legend:
S. aureus (ATCC29213) = assay: In vitro susceptibility, broth microdilution (MIC); assay type: cell-based; details: Staphylococcus aureus; S. aureus ATCC29213; 18-24 h, 37 C; read-out: Antimicrobial activity (MIC) S. aureus ATCC29213
Text: Epidemic methicillin resistant S. aureus (MRSA) strain sequenced at the Sanger Centre (MRSA252, NRS71) was obtained from NARSA (Network on Antimicrobial Resistance in S. aureus). Methicillin sensitive S. aureus (ATCC 29213 and 25923), methicillin resistant S. aureus (ATCC BAA-1762), and Salmonella typhimurium (ATCC BAA-185) were obtained from ATCC, The Global Bioresource Center. Acinetobacter baumannii (ATCC 19606 and ATCC 17978), Klebsiella pneumonia (C238), vancomycin resistant Enterococci #2 (2010A) (VRE#2), MRSA (USA400, MW2) and Pseudomonas aeruginosa (PA0-1) were obtained from the laboratory of Dr B. B. Finlay at the University of British Columbia (Vancouver, Canada).
The antimicrobial activities of PK inhibitor candidates were determined using the 96-well microtiter standard 2-fold serial broth microdilution method as described by CLSI (formerly NCCLS) with the various gram-positive and gram-negative bacteria species mentioned above. Bacteria from a single colony were grown, overnight in either BHI Broth (VRE), mueller hinton broth (S. aureus 29213; MRSA USA400, A. baumannii 19606, MRSA BAA-1762) or L-broth (P. aeruginosa, S. typhimurium, K. pneumonia and A. baumannii 17978). […] Culture plates were incubated for 18-24 h at 37° C., and optical density at 600 nm (OD600) was measured using a Benchmark Plus™ microplate spectrophotometer (Bio-Rad™). The absorbance control values for the series containing CAMHB and inhibitor were subtracted as background from the corresponding infected wells. Minimal inhibitory concentration (MIC) was defined as the lowest concentration of test compound leading to complete inhibition of cell growth in relation to compound-free control wells as determined by optical density. Vancomycin, methicillin and ciprofloxicin were used as reference compounds. All assays were run in triplicate or duplicate. Experiments were replicated at least twice to verify reproducibility using the above conditions.

MRSA Pyk = target: T1, MRSA Pyk (Staphylococcus aureus, UniProt Q6GG09); assay: MRSA pyruvate kinase (PK) activity, continuous LDH-coupled assay; assay type: biochemical, methicillin resistant S. aureus (MRSA252)
T1 construct: made in house; host or cells: E. coli BL-21 (DE3)
Text: Genomic DNA of MRSA strain Sanger 252 extracted using DNeasy Tissue Kit™ (Qiagen™) was used as a template to generate the His-tagged MRSA PK. Human cDNA from MCF-7 breast cancer cell line (courtesy of Dr. J Wong, BC Cancer Research Center (Vancouver, Canada)) was used as a template to generate the full-length human M2 PK enzyme. The following primer sets were used creating appropriate restriction sites (NdeI and XhoI sites underlined): For cloning of MRSA PK: M27F 5′-[…]-3′ and M27R 5′-[…]-3′, for cloning of human M2 PK isoform: hM2F 5′-[…]-3′ and hM2R 5′-[…]-3′. The resulting PCR fragments for each construct were cloned into the NdeI and XhoI unique sites of the bacterial expression vector pET-28a (+) (Novagen™). […] The sequence and the correct reading frame of all constructs were verified by sequencing. Human M1, R and L PK constructs in pET-28-a(+) vectors (courtesy of Dr. L. Cantley, Harvard Medical, School (Boston, USA)) were used to generate relevant recombinant His-tagged human PK isoforms.
MRSA and human constructs in pET-28a(+) were used to express relevant recombinant PK proteins in E. coli BL-21 (DE3). The proteins were expressed and purified using Ni-NTA agarose (Qiagen™) according to the manufacturer's protocol. Briefly, cells were grown to an absorbance of 0.4-0.5 at 600 nm in 2×YT medium, then induced with 0.1 mM IPTG for 3 h at 20° C. Cells were lysed by sonication on ice (3×10-s bursts with a 30-s recovery between bursts) in lysis buffer (0.2 mg/ml lysozyme, 50 mM Tris pH 7.5, 10 mM MgCl2, 200 mM NaCl, 100 mM KCl, 10% glycerol, 10 mM imidazole, 0.5% NP-40 and 1 mM DTT containing Complete™ protease inhibitor). Cell lysates were cleared by centrifugation (18,000×g in a Beckman™ JA-20 rotor) for 20 min at 4° C. and PK isoforms were purified by batch binding to Ni-NTA resin. The resins were then packed in columns (1×2 cm) and washed with 400 column volumes lysis buffer containing 30 mM imidazole. His-tagged PK isoforms were eluted with the same buffer containing 300 mM imidazole. The proteins were dialyzed overnight at 4° C. against 2000 volumes of ice-cold 30 mM Tris pH 7.5, 25 mM KCl, 5 mM MgCl2, 10% glycerol and 1 mM DTT to remove imidazole. All purification steps were done at 4° C.; enzymes were flash-frozen and stored at −70° C. Enzymatic activity of frozen protein preparations was stable for at least 10 months and up to 5 freeze/thaw cycles. Purity and physical integrity of proteins were assessed using SDS-polyacrylamide gel electrophoresis (SDS-PAGE) followed by coomassie blue staining. Protein concentration was estimated by Bradford assay (Bio-Rad Protein Assay™) using bovine serum albumin as a standard.
Candidate MRSA PK inhibitors were assayed for their ability to inhibit enzymatic activities of MRSA and human PKs. PK activity was determined using a continuous assay coupled to lactate dehydrogenase (LDH) in which the change in absorbance at 340 nm owing to oxidation of NADH was measured using a Benchmark Plus™ microplate spectrophotometer (Bio-Rad Laboratories, Hercules, Calif.). […] Reactions were initiated by the addition of 15 nM of one of the PK enzymes. PK activity proportional to the rate of change at 340 nm was expressed as specific activity (μmol/min/mg), which is defined as the amount of PK that catalyzes the formation of one micromole of either product per minute. Inhibitors were dissolved in DMSO with the final concentration of the solvent never exceeding 1% of the assay volume. IC50 values were calculated by curve fitting on a four-parameter dose-response model with variable slope using Graphpad Prism 5.0™ (GraphPad™ Software Inc., La Jolla, Calif.). In all studies, less than 10% of total PEP was exhausted during the reaction. Reactions were performed at 30° C. for up to 5 min. All values determined represent at least two measurements, in triplicate (Tables 1-6) or duplicate unless mentioned otherwise. […]

T1 sequence (Q6GG09 whole entry): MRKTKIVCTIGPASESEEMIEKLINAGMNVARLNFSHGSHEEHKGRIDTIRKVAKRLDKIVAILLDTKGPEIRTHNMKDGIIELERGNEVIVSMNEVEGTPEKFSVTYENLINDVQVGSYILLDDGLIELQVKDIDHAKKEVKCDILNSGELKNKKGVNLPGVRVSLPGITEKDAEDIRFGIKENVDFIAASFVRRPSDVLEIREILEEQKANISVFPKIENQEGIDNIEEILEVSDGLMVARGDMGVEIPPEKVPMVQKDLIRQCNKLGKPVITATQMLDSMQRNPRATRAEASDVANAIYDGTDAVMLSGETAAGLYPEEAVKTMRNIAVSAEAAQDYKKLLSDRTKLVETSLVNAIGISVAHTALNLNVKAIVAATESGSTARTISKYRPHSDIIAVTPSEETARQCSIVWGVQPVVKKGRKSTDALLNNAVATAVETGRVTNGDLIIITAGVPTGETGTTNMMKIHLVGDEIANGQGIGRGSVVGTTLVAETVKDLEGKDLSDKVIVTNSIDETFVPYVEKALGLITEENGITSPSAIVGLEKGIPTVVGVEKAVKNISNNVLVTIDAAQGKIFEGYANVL

Structure (SMILES) | MIC (S. aureus (ATCC29213)) | IC50 (MRSA Pyk)
ON=C(c1c(CCc2ccc(Cl)cc2)[nH]c2cc(Br)ccc12)C(F)(F)F (racemic) [Compound 46, 1-(6-Bromo-2-(4-chlorophenethyl)-1H-indol-3-yl)-2,2,2-trifluoroethanone Oxime] | 1 µg/mL (≈ 2.24 µM) | > 1000 nM
O=C(c1c(/C=C/c2ccc(Cl)cc2)[nH]c2cc(Br)ccc12)C1CCOCC1 [Compound 1, (E)-(6-Bromo-2-(4-chlorostyryl)-1H-indol-3-yl)(tetrahydro-2H-pyran-4-yl)methanone] | > 64 µg/mL | < 100 nM
O=C(c1c(/C=C/c2ccc(Cl)cc2)[nH]c2cc(Br)ccc12)C1CC1 [Compound 2, (E)-(6-Bromo-2-(4-chlorostyryl)-1H-indol-3-yl)(cyclopropyl)methanone] | 2 µg/mL (≈ 4.99 µM) | < 100 nM
O=C(c1ccccc1)c1c(/C=C/c2ccc(Cl)cc2)[nH]c2cc(Br)ccc12 [Compound 3, (E)-(6-Bromo-2-(4-chlorostyryl)-1H-indol-3-yl)(phenyl)methanone] | 16 µg/mL (≈ 36.6 µM) | < 100 nM
O=C(c1c(CCc2ccc(Cl)cc2)[nH]c2cc(Br)ccc12)C1CCOCC1 [Compound 4, (6-Bromo-2-(4-chlorophenethyl)-1H-indol-3-yl)(tetrahydro-2H-pyran-4-yl)methanone] | 8 µg/mL (≈ 17.9 µM) | < 100 nM
O=C(O)C(F)(F)C(F)(F)C(=O)c1c(/C=C/c2ccc(Cl)cc2)[nH]c2cc(Br)ccc12 [Compound 5, (E)-4-(6-Bromo-2-(4-chlorostyryl)-1H-indol-3-yl)-2,2,3,3-tetrafluoro-4-oxobutanoic Acid] | 32 µg/mL (≈ 63.4 µM) | < 100 nM
CN1CCN(CCC(=O)c2c(/C=C/c3cn4ccccc4n3)[nH]c3cc(Br)ccc23)CC1 [Compound 8, (E)-1-(6-Bromo-2-(2-(imidazo[1,2-a]pyridin-2-yl)vinyl)-1H-indol-3-yl)-3-(4-methylpiperazin-1-yl)propan-1-one] | 64 µg/mL (≈ 130 µM) | 100 to 1000 nM
CN(C)CCC(=O)c1c(/C=C/c2cn3ccccc3n2)[nH]c2cc(Br)ccc12 [Compound 9, (E)-1-(6-Bromo-2-(2-(imidazo[1,2-a]pyridin-2-yl)vinyl)-1H-indol-3-yl)-3-(dimethylamino)propan-1-one] | 32 µg/mL (≈ 73.2 µM) | 100 to 1000 nM
O=C(CCN1CCOCC1)c1c(/C=C/c2cn3ccccc3n2)[nH]c2cc(Br)ccc12 [Compound 10, (E)-1-(6-Bromo-2-(2-(imidazo[1,2-a]pyridin-2-yl)vinyl)-1H-indol-3-yl)-3-morpholinopropan-1-one] | > 64 µg/mL | 100 to 1000 nM
OC(c1c(/C=C/c2ccc(Cl)cc2)[nH]c2cc(Br)ccc12)(C(F)(F)F)C(F)(F)F [Compound 13, (E)-2-(6-Bromo-2-(4-chlorostyryl)-1H-indol-3-yl)-1,1,1,3,3,3-hexafluoropropan-2-ol] | 1 µg/mL (≈ 2.01 µM) | 100 to 1000 nM
OC(c1c(CCc2ccc(Cl)cc2)[nH]c2cc(Br)ccc12)(C(F)(F)F)C(F)(F)F [Compound 14, 2-(6-Bromo-2-(4-chlorophenethyl)-1H-indol-3-yl)-1,1,1,3,3,3-hexafluoropropan-2-ol] | 1 µg/mL (≈ 2 µM) | 100 to 1000 nM
OC(c1c(/C=C/c2ccc(Cl)cc2)[nH]c2cc(Br)ccc12)C(F)(F)F (stereo not drawn) [Compound 16, (E)-1-(6-Bromo-2-(4-chlorostyryl)-1H-indol-3-yl)-2,2,2-trifluoroethanol] | 1 µg/mL (≈ 2.32 µM) | < 100 nM
OC(c1c(CCc2ccc(Cl)cc2)[nH]c2cc(Br)ccc12)C(F)(F)F (stereo not drawn) [Compound 17] | 2 µg/mL (≈ 4.62 µM) | 100 to 1000 nM
CC(O)(c1c(/C=C/c2ccc(Cl)cc2)[nH]c2cc(Br)ccc12)C(F)(F)F (stereo not drawn) [Compound 18, (E)-2-(6-Bromo-2-(4-chlorostyryl)-1H-indol-3-yl)-1,1,1-trifluoropropan-2-ol] | 1 µg/mL (≈ 2.25 µM) | < 100 nM
CN(C)C(=O)c1c(/C=C/c2ccc(Cl)cc2)[nH]c2cc(Br)ccc12 [Compound 21, (E)-6-Bromo-2-(4-chlorostyryl)-N,N-dimethyl-1H-indole-3-carboxamide] | > 64 µg/mL | < 100 nM
